Experiment [1] concerns Bcl-B. As to conditions: cited from earlier work.
For experiment [2], the target named is T1, Bcl-B:Bim complex (Homo sapiens, UniProt Q9HD36, C138S/C30S).
T1 sequence (Q9HD36 12-177 C30S/C138S): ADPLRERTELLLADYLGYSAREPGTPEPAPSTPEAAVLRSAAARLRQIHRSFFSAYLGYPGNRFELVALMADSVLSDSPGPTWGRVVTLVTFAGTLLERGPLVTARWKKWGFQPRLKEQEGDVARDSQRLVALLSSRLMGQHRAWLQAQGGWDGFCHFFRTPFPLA
As to the kind of experiment: SPR competition assay: displacement of Bim-BH3 from the Bcl-B:6His-Bim complex. Format: binding. As to conditions: BH3 peptides between 1.25 and 40 μM.

For experiment [3], the target named is Bcl-BΔC27 (C-terminally truncated Bcl-B, residues A2–A167, cysteines 20 and 128 mutated to serine) (human). As to the kind of experiment: SPR. For orientation: Surface plasmon resonance follows binding to a sensor surface in real time, without labels.

As usually defined, the pIC50 is −log10 of the IC50, conventionally taken in molar units. A high value points to a low IC50.

pIC50: −log10 of the molar value.

Take `CN(C)CC[C@H](CSc1ccccc1)Nc1ccc(S(=O)(=O)NC(=O)c2ccc(N3CCN(Cc4ccccc4-c4ccc(Cl)cc4)CC3)cc2)cc1[N+](=O)[O-]` [ABT-737]: the “Binding to Bcl-B” value in experiment [1] was “does not bind Bcl-B”. Moreover, the “Displacement of Bim from the Bcl-B:Bim complex” value in experiment [2] is given as “failed to displace Bim”.
Bax-BH3 peptide had a pIC50 in experiment [3] of 5.18.
For Bik-BH3 peptide, in experiment [3], the pIC50 is 3.95.

The values are drawn from article PMC3542614 (Cell Death & Disease, 2012).
